Measurements: patent publication US12612387B2, “RAS inhibitors and methods of using the same” (Jazz Pharmaceuticals Ireland Limited, priority 2020, dated 2026)

Key:
K-RAS G12D = target: T1, K-RAS G12D (Homo sapiens, UniProt P01116, G12D); assay: Compound depletion assay, K-RAS G12D; assay type: binding; settings: G12D protein 20 μM, compound 8 μM, 25° C.
T1 construct: His tag; purchased Stratech
Method in brief: (§1)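 His-tagged K-RAS (20 μM) in 20 mM HEPES pH 7.5, 150 mM NaCl, 1 mM MgCl2 incubated with 8 μM compound (final) at 25 °C with agitation. At 0, 30, 180, 360, 1440 min, samples were acid/acetonitrile-quenched and remaining free compound quantified by LC-MS/MS against propranolol, as percent of time zero.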

K-RAS G12C = target: T2, K-RAS G12C (Homo sapiens, UniProt P01116, G12C); assay: Compound depletion assay, K-RAS G12C; assay type: binding; settings: G12C protein 20 μM, compound 8 μM, 25° C.
T2 construct: His tag; purchased Stratech
Method in brief: as §1

T1 sequence (P01116 1-188 isoform P01116-2 G12D): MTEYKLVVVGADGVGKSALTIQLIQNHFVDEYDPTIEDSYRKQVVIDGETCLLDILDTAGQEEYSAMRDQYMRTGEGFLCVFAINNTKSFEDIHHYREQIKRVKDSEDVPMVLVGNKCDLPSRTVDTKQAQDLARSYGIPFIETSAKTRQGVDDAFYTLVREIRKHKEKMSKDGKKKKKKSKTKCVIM
T2 sequence (P01116 1-188 isoform P01116-2 G12C): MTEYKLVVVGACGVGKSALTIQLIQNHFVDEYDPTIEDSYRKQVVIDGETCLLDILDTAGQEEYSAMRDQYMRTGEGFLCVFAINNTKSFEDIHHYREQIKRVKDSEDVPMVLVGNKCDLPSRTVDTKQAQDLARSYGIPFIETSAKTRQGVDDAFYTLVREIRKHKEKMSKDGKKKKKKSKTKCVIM

| SMILES | 30 min Category (compound remaining at timepoint) (K-RAS G12D) | 3 hr Category (compound remaining at timepoint) (K-RAS G12D) | 6 hr Category (compound remaining at timepoint) (K-RAS G12D) | 30 min Category (compound remaining at timepoint) (K-RAS G12C) | 3 hr Category (compound remaining at timepoint) (K-RAS G12C) | 6 hr Category (compound remaining at timepoint) (K-RAS G12C) |
| --- | --- | --- | --- | --- | --- | --- |
| C=CC(=O)N1CCN(c2cc(C(=O)Nc3cc(O)cc4ccccc34)nc(-c3cccc4c3cnn4C)n2)C[C@@H]1CC#N [Example 38, 6-[(3S)-3-(cyanomethyl)-4-prop-2-enoyl-piperazin-1-yl]-N-(3-hydroxy-1-naphthyl)-2-(1-methylindazol-4-yl)pyrimidine-4-carboxamide] | A (≥70% compound remaining at timepoint) | A (≥70% compound remaining at timepoint) | A (≥70% compound remaining at timepoint) | A (≥70% compound remaining at timepoint) | A (≥70% compound remaining at timepoint) | A (≥70% compound remaining at timepoint) |
| C=CC(=O)N1CCN(c2cc(C(=O)Nc3cc(O)cc4ccccc34)nc(-c3cccc4cnn(C)c34)n2)C[C@@H]1CC#N [Example 39, 6-[(3S)-3-(cyanomethyl)-4-prop-2-enoyl-piperazin-1-yl]-N-(3-hydroxy-1-naphthyl)-2-(1-methylindazol-7-yl)pyrimidine-4-carboxamide] | A (≥70% compound remaining at timepoint) | A (≥70% compound remaining at timepoint) | A (≥70% compound remaining at timepoint) | A (≥70% compound remaining at timepoint) | B (30%-70% compound remaining at timepoint) | B (30%-70% compound remaining at timepoint) |
| C=CC(=O)N1CCN(c2cc(C(=O)Nc3cc(O)cc4ccccc34)nc(Cc3ccccc3)n2)C[C@@H]1CC#N [Example 40, 2-benzyl-6-[(3S)-3-(cyanomethyl)-4-prop-2-enoyl-piperazin-1-yl]-N-(3-hydroxy-1-naphthyl)pyrimidine-4-carboxamide] | A (≥70% compound remaining at timepoint) | A (≥70% compound remaining at timepoint) | A (≥70% compound remaining at timepoint) | A (≥70% compound remaining at timepoint) | A (≥70% compound remaining at timepoint) | A (≥70% compound remaining at timepoint) |
| C=CC(=O)N1CCN(c2cc(C(=O)Nc3cc(O)cc4ccccc34)nc(NCc3ccnn3C)n2)C[C@@H]1CC#N [Example 41, 6-[(3S)-3-(cyanomethyl)-4-prop-2-enoyl-piperazin-1-yl]-N-(3-hydroxy-1-naphthyl)-2-[(2-methylpyrazol-3-yl)methylamino]pyrimidine-4-carboxamide] | A (≥70% compound remaining at timepoint) | A (≥70% compound remaining at timepoint) | A (≥70% compound remaining at timepoint) | A (≥70% compound remaining at timepoint) | B (30%-70% compound remaining at timepoint) | B (30%-70% compound remaining at timepoint) |
| C=CC(=O)N1CCN(c2cc(C(=O)Nc3cc(O)cc4ccccc34)nc(OCc3cnn(C)c3)n2)C[C@@H]1CC#N [Example 42, 6-[(3S)-3-(cyanomethyl)-4-prop-2-enoyl-piperazin-1-yl]-N-(3-hydroxy-1-naphthyl)-2-[(1-methylpyrazol-4-yl)methoxy]pyrimidine-4-carboxamide] | A (≥70% compound remaining at timepoint) | A (≥70% compound remaining at timepoint) | A (≥70% compound remaining at timepoint) | B (30%-70% compound remaining at timepoint) | C (≤30% compound remaining at timepoint) | C (≤30% compound remaining at timepoint) |
| C=CC(=O)N1CCN(c2cc(C(=O)Nc3cc(O)cc4ccccc34)nc(NCC3CCCN(C)C3)n2)C[C@@H]1CC#N (stereo partly drawn) [Example 43, 6-[(3S)-3-(cyanomethyl)-4-prop-2-enoyl-piperazin-1-yl]-N-(3-hydroxy-1-naphthyl)-2-[(1-methyl-3-piperidyl)methylamino]pyrimidine-4-carboxamide] | A (≥70% compound remaining at timepoint) | A (≥70% compound remaining at timepoint) | A (≥70% compound remaining at timepoint) | B (30%-70% compound remaining at timepoint) | C (≤30% compound remaining at timepoint) | C (≤30% compound remaining at timepoint) |
| C=CC(=O)N1CCN(c2cc(C(=O)Nc3cc(O)cc4ccccc34)nc(NC[C@@H]3CCCN3Cc3ccccc3)n2)C[C@@H]1CC#N [Example 44, 2-[[(2S)-1-benzylpyrrolidin-2-yl]methylamino]-6-[(3S)-3-(cyanomethyl)-4-prop-2-enoyl-piperazin-1-yl]-N-(3-hydroxy-1-naphthyl)pyrimidine-4-carboxamide] | A (≥70% compound remaining at timepoint) | A (≥70% compound remaining at timepoint) | A (≥70% compound remaining at timepoint) | A (≥70% compound remaining at timepoint) | B (30%-70% compound remaining at timepoint) | B (30%-70% compound remaining at timepoint) |
| C=CC(=O)N1CCN(c2cc(C(=O)Nc3cc(O)cc4ccccc34)nc(NCC3CCCN3C)n2)C[C@@H]1CC#N (stereo partly drawn) [Example 45, 6-[(3S)-3-(cyanomethyl)-4-prop-2-enoyl-piperazin-1-yl]-N-(3-hydroxy-1-naphthyl)-2-[(1-methylpyrrolidin-2-yl)methylamino]pyrimidine-4-carboxamide] | A (≥70% compound remaining at timepoint) | A (≥70% compound remaining at timepoint) | A (≥70% compound remaining at timepoint) | B (30%-70% compound remaining at timepoint) | C (≤30% compound remaining at timepoint) | C (≤30% compound remaining at timepoint) |
| C=CC(=O)N1CCN(c2cc(C(=O)Nc3cc(O)cc4ccccc34)nc(NC[C@@H]3CCCN3CCO)n2)C[C@@H]1CC#N [Example 46, 6-[(3S)-3-(cyanomethyl)-4-prop-2-enoyl-piperazin-1-yl]-2-[[(2S)-1-(2-hydroxyethyl)pyrrolidin-2-yl]methylamino]-N-(3-hydroxy-1-naphthyl)pyrimidine-4-carboxamide] | A (≥70% compound remaining at timepoint) | A (≥70% compound remaining at timepoint) | A (≥70% compound remaining at timepoint) | B (30%-70% compound remaining at timepoint) | C (≤30% compound remaining at timepoint) | C (≤30% compound remaining at timepoint) |
| C=CC(=O)N1CCN(c2cc(C(=O)Nc3cc(O)cc4ccccc34)nc(NCC3CCCCN3C)n2)C[C@@H]1CC#N (stereo partly drawn) [Example 49, 6-[(3S)-3-(cyanomethyl)-4-prop-2-enoyl-piperazin-1-yl]-N-(3-hydroxy-1-naphthyl)-2-[(1-methyl-2-piperidyl)methylamino]pyrimidine-4-carboxamide] | A (≥70% compound remaining at timepoint) | A (≥70% compound remaining at timepoint) | A (≥70% compound remaining at timepoint) | B (30%-70% compound remaining at timepoint) | C (≤30% compound remaining at timepoint) | C (≤30% compound remaining at timepoint) |

Second part, the compound after the results:

| 30 min Category (compound remaining at timepoint) (K-RAS G12D) | 3 hr Category (compound remaining at timepoint) (K-RAS G12D) | 6 hr Category (compound remaining at timepoint) (K-RAS G12D) | 30 min Category (compound remaining at timepoint) (K-RAS G12C) | 3 hr Category (compound remaining at timepoint) (K-RAS G12C) | 6 hr Category (compound remaining at timepoint) (K-RAS G12C) | SMILES |
| --- | --- | --- | --- | --- | --- | --- |
| A (≥70% compound remaining at timepoint) | A (≥70% compound remaining at timepoint) | A (≥70% compound remaining at timepoint) | C (≤30% compound remaining at timepoint) | C (≤30% compound remaining at timepoint) | C (≤30% compound remaining at timepoint) | C=CC(=O)N1CCN(c2cc(C(=O)Nc3cc(O)cc4ccccc34)nc(OCCC3CCCN3C)n2)C[C@@H]1CC#N (stereo partly drawn) [Example 47, 6-[(3S)-3-(cyanomethyl)-4-prop-2-enoyl-piperazin-1-yl]-N-(3-hydroxy-1-naphthyl)-2-[2-(1-methylpyrrolidin-2-yl)ethoxy]pyrimidine-4-carboxamide] |
| A (≥70% compound remaining at timepoint) | A (≥70% compound remaining at timepoint) | A (≥70% compound remaining at timepoint) | C (≤30% compound remaining at timepoint) | C (≤30% compound remaining at timepoint) | C (≤30% compound remaining at timepoint) | C=CC(=O)N1CCN(c2cc(C(=O)Nc3cc(O)cc4ccccc34)nc(OCC3CCCCN3C)n2)C[C@@H]1CC#N (stereo partly drawn) [Example 48, 6-[(3S)-3-(cyanomethyl)-4-prop-2-enoyl-piperazin-1-yl]-N-(3-hydroxy-1-naphthyl)-2-[(1-methyl-2-piperidyl)methoxy]pyrimidine-4-carboxamide] |
